Entries after “also recorded” stand apart in the source; their conditions may differ.
Key:
C57BL/6J and FVB mice = assay: Liver regeneration after partial hepatectomy; assay type: in vivo
[1] = test system: 15-PGDH-luciferase fusion reporter in V9m, LS174T and V503 cell lines; assay: 15-PGDH-luciferase fusion gene reporter induction in three colon cancer cell lines (stated jointly); assay type: cell-based
[2] = test system: V9m reporter cell line expressing a 15-PGDH luciferase fusion construct; assay: 15-PGDH-luciferase fusion gene reporter induction, V9m cell line; assay type: cell-based; conditions: […], % increased luciferase activity over basal level
Excerpt: These cell lines are Vaco-9m (V9m), LS174T, Vaco503 (V503). […] Value of 1.0 on the Y-axis is the basal level of reporter activity in cells treated with drug free DMSO vehicle.
This Example provides data on a group of structural analogues of SW033291. Data provided includes level of induction of a 15-PGDH-luciferase fusion gene reporter, recorded as % increased luciferase activity over basal level, in three colon cancer cell lines, V9m, V503, and LS174T, engineered to contain the reporter, and treated with either 2.5 uM or 7.5 uM compound (i.e., Values are recorded on a scale where 100 indicates of doubling of luciferase activity over baseline level).
FIGS. 27(A-C) show graphs that show the level of compound's activity in inducing the 15-PGDH-luciferase fusion reporter in three different test cell line backgrounds, V9m, LS174T, and V503. Each compound was tested at two concentrations, 2.5 uM, and 7.5 uM. Y-axis is luciferase activity.
Data provided include level of induction of a 15-PGDH-luciferase fusion gene reporter, recorded as % induction of luciferase activity over basal level, in three colon cancer cell lines, V9m, V503, and LS174T, engineered to contain the reporter, and treated with either 2.5 uM or 7.5 uM compound. […] Additionally, for selected compounds is recorded the decrease in PGE2 levels in the media of compound treated A549 cells that have been stimulated with IL-1 beta. Additionally recorded for selected compounds is the effect on A549 cell viability as measured by a CellTiter-Glo assay, and the effect of compounds on A549 cell colony formation.

[3] = test system: 15-PGDH mRNA in colon cancer cell lines; assay: 15-PGDH mRNA levels by real-time PCR; assay type: cell-based
Excerpt: In these studies parental cell lines (not containing the 15-PGDH-luciferase reporter) are employed.

C57BL/6J mice [4] = assay: Survival following acetaminophen (Tylenol) overdose; assay type: in vivo; conditions: for Number of mice surviving: Table 10, first dose immediately after Tylenol;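 for all read-outs here: control mice received vehicle only, given once or twice per day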
[5] = test system: CD45.2 marked C57BL/6J donor marrow in lethally irradiated CD45.1 mice; assay: Competitive bone marrow transplant, chimerism; assay type: in vivo; conditions: donor 5 mg/kg IP daily for 3 doses; weeks 12 and 16
Protocol: On day 3 mice were sacrificed, marrow flushed and mixed at a 1:1 ratio with vehicle treated CD45.1 marrow. 2 million whole BM cells were injected into the tail vein of lethally irradiated CD45.1 mice and percent chimerism measured via flow cytometry at weeks 8, 12, 16.

FVB male mice = assay: Dextran sodium sulfate (DSS) induced colitis; assay type: in vivo
A549 cells = assay: PGE2 levels in medium of IL1-beta stimulated A549 cells; assay type: cell-based
C57BL/6J mice [6] = assay: Survival after whole body irradiation; assay type: in vivo

## CCCC[S+]([O-])c1sc2nc(-c3cccs3)cc(-c3ccccc3)c2c1N (stereo not drawn) [SW033291, 2-(butylsulfinyl)-4-phenyl-6-(thiophen-2-yl)thieno[2,3-b]pyridin-3-amine]
C57BL/6J and FVB mice; C57BL/6J, 5 mg/kg IP daily
  Hepatic mitosis, in words: significantly increased hepatic mitosis versus controls on days 3 and 4
C57BL/6J and FVB mice; one mouse, 5 mg/kg IP twice daily
  Serum ALT levels: lower
C57BL/6J and FVB mice; post-operative day 2
  BrdU positive cells in liver, in words: clear increase in numbers of BrdU positive cells
[1]
  Induction of 15-PGDH-luciferase reporter, in words: increase luciferase activity
[2]
  V9M reporter activity ([…]): 93.16%
[2]; 100 = doubling
  V9M reporter activity ([…]): 98.24%
[3]; V503 cells
  15-PGDH mRNA levels: slight increase in 15-PGDH mRNA
[3]; treated colon cancer cell lines, real-time PCR
  15-PGDH mRNA levels: do not in general alter 15-PGDH mRNA levels
C57BL/6J mice [4]; 5 mg/kg IP bid beginning 3 hours prior to acetaminophen, 6 doses
  Mice surviving at 120 hours: 3 of 6
C57BL/6J mice [4]; 5 mg/kg IP bid beginning 48 hours prior to acetaminophen, 9 doses
  Mice surviving at 120 hours: 10 of 12
C57BL/6J mice [4]; 1 dose daily, 16 hr
  Number of mice surviving: 6
C57BL/6J mice [4]; 1 dose daily, 24 hrs
  Number of mice surviving: 6
C57BL/6J mice [4]; 2 dose daily, 16 hr
  Number of mice surviving: 6
C57BL/6J mice [4]; 2 dose daily, 24 hrs
  Number of mice surviving: 6
C57BL/6J mice [4]; 2 dose daily, 48 hrs
  Number of mice surviving: 3
C57BL/6J mice [4]; 2 dose daily, 64 hrs
  Number of mice surviving: 3
C57BL/6J mice [4]; 2 dose daily, 72 hrs
  Number of mice surviving: 3
C57BL/6J mice [4]; 2 dose daily, 88 hr
  Number of mice surviving: 3
C57BL/6J mice [4]; 2 dose daily, 96 hr
  Number of mice surviving: 3
C57BL/6J mice [4]; 2 dose daily, 112 hr
  Number of mice surviving: 3
C57BL/6J mice [4]; 2 dose daily, 120 hr
  Number of mice surviving: 3
C57BL/6J mice [4]; Table 11, bid beginning 48 hours prior to acetaminophen, 16 hr
  Survival (number of mice): 12
C57BL/6J mice [4]; Table 11, bid beginning 48 hours prior to acetaminophen, 24 hrs
  Survival (number of mice): 12
C57BL/6J mice [4]; Table 11, bid beginning 48 hours prior to acetaminophen, 40 hrs
  Survival (number of mice): 11
C57BL/6J mice [4]; Table 11, bid beginning 48 hours prior to acetaminophen, 48 hrs
  Survival (number of mice): 10
C57BL/6J mice [4]; Table 11, bid beginning 48 hours prior to acetaminophen, 64 hrs
  Survival (number of mice): 10
C57BL/6J mice [4]; Table 11, bid beginning 48 hours prior to acetaminophen, 72 hrs
  Survival (number of mice): 10
C57BL/6J mice [4]; Table 11, bid beginning 48 hours prior to acetaminophen, 88 hr
  Survival (number of mice): 10
C57BL/6J mice [4]; Table 11, bid beginning 48 hours prior to acetaminophen, 96 hr
  Survival (number of mice): 10
C57BL/6J mice [4]; Table 11, bid beginning 48 hours prior to acetaminophen, 112 hr
  Survival (number of mice): 10
C57BL/6J mice [4]; Table 11, bid beginning 48 hours prior to acetaminophen, 120 hr
  Survival (number of mice): 10
C57BL/6J mice [4]; Table 12, bid beginning 3 hours prior to acetaminophen, 16 hr
  Survival (number of mice): 6
C57BL/6J mice [4]; Table 12, bid beginning 3 hours prior to acetaminophen, 24 hrs
  Survival (number of mice): 5
C57BL/6J mice [4]; Table 12, bid beginning 3 hours prior to acetaminophen, 48 hrs
  Survival (number of mice): 3
C57BL/6J mice [4]; Table 12, bid beginning 3 hours prior to acetaminophen, 64 hrs
  Survival (number of mice): 3
C57BL/6J mice [4]; Table 12, bid beginning 3 hours prior to acetaminophen, 72 hrs
  Survival (number of mice): 3
C57BL/6J mice [4]; Table 12, bid beginning 3 hours prior to acetaminophen, 88 hr
  Survival (number of mice): 3
C57BL/6J mice [4]; Table 12, bid beginning 3 hours prior to acetaminophen, 96 hr
  Survival (number of mice): 3
C57BL/6J mice [4]; Table 12, bid beginning 3 hours prior to acetaminophen, 112 hr
  Survival (number of mice): 3
C57BL/6J mice [4]; Table 12, bid beginning 3 hours prior to acetaminophen, 120 hr
  Survival (number of mice): 3
[5]
  Percent blood chimerism of CD45.2 marked cells: significantly increased
FVB male mice; 5 mg/kg IP twice daily
  Body weight versus control, in words: greater weight at all time points; also recorded: greater body weight
FVB male mice; colonoscopy days 8, 11, 15
  Ulcer formation: prevents two-thirds of ulcer formation
FVB male mice; day 22
  Colon length versus control, in words: greater colon lengths
A549 cells; 100 nM drug, 15-PGDH inhibitors
  PGE2 levels in the medium, ranking: next highest level of PGE2
A549 cells; IL1-beta stimulated A549 cells
  Effect on PGE2 levels in medium, in words: clear inhibition of 15-PGDH activity
A549 cells; IL-1β 16 h, compound 8 h, highest level of titration
  PGE2 levels achieved: 3000 pg/mL
C57BL/6J mice [6]; 11 Gy, 5 mg/kg IP daily for 7 doses
  Survival longer than vehicle control: 48 h
C57BL/6J mice [6]; 11 Gy, any of the dosing schedules
  Survival longer than vehicle control, on average: 1 to 2 days
C57BL/6J mice [6]; Table 7, 7 Gy, Day 5
  Number of mice surviving: 3
C57BL/6J mice [6]; Table 7, 7 Gy, Day 6
  Number of mice surviving: 3
C57BL/6J mice [6]; Table 7, 7 Gy, Day 7
  Number of mice surviving: 3
C57BL/6J mice [6]; Table 7, 7 Gy, Day 8
  Number of mice surviving: 3
C57BL/6J mice [6]; Table 7, 7 Gy, Day 9
  Number of mice surviving: 3
C57BL/6J mice [6]; Table 7, 7 Gy, Day 10
  Number of mice surviving: 3
C57BL/6J mice [6]; Table 7, 7 Gy, Day 11
  Number of mice surviving: 3
C57BL/6J mice [6]; Table 7, 7 Gy, Day 12
  Number of mice surviving: 3
C57BL/6J mice [6]; Table 7, 7 Gy, Day 13
  Number of mice surviving: 3
C57BL/6J mice [6]; Table 7, 7 Gy, Day 14
  Number of mice surviving: 3
C57BL/6J mice [6]; Table 7, 7 Gy, Day 15
  Number of mice surviving: 3
C57BL/6J mice [6]; Table 7, 7 Gy, Day 25 (Looks Healthy)
  Condition of surviving mice: Healthy
C57BL/6J mice [6]; Table 7, 9 Gy, Day 5
  Number of mice surviving: 3
C57BL/6J mice [6]; Table 7, 9 Gy, Day 6
  Number of mice surviving: 3
C57BL/6J mice [6]; Table 7, 9 Gy, Day 7
  Number of mice surviving: 3
C57BL/6J mice [6]; Table 7, 9 Gy, Day 8
  Number of mice surviving: 3
C57BL/6J mice [6]; Table 7, 9 Gy, Day 9
  Number of mice surviving: 3
C57BL/6J mice [6]; Table 7, 9 Gy, Day 10
  Number of mice surviving: 3
C57BL/6J mice [6]; Table 7, 9 Gy, Day 11
  Number of mice surviving: 3
C57BL/6J mice [6]; Table 7, 9 Gy, Day 12
  Number of mice surviving: 2
C57BL/6J mice [6]; Table 7, 9 Gy, Day 13
  Number of mice surviving: 2
C57BL/6J mice [6]; Table 7, 9 Gy, Day 14
  Number of mice surviving: 1
C57BL/6J mice [6]; Table 7, 9 Gy, Day 15
  Number of mice surviving: 0
C57BL/6J mice [6]; Table 7, 11 Gy, Day 5
  Number of mice surviving: 3
C57BL/6J mice [6]; Table 7, 11 Gy, Day 6
  Number of mice surviving: 3
C57BL/6J mice [6]; Table 7, 11 Gy, Day 7
  Number of mice surviving: 3
C57BL/6J mice [6]; Table 7, 11 Gy, Day 8
  Number of mice surviving: 3
C57BL/6J mice [6]; Table 7, 11 Gy, Day 9
  Number of mice surviving: 2
C57BL/6J mice [6]; Table 7, 11 Gy, Day 10
  Number of mice surviving: 0
C57BL/6J mice [6]; Table 8, 11 Gy, 1 dose daily for 7 days, Day 5
  Number of mice surviving: 3
C57BL/6J mice [6]; Table 8, 11 Gy, 1 dose daily for 7 days, Day 6
  Number of mice surviving: 3
C57BL/6J mice [6]; Table 8, 11 Gy, 1 dose daily for 7 days, Day 7
  Number of mice surviving: 3
C57BL/6J mice [6]; Table 8, 11 Gy, 1 dose daily for 7 days, Day 8
  Number of mice surviving: 2
C57BL/6J mice [6]; Table 8, 11 Gy, 1 dose daily for 7 days, Day 9
  Number of mice surviving: 1
C57BL/6J mice [6]; Table 8, 11 Gy, 1 dose daily for 7 days, Day 10
  Number of mice surviving: 0
C57BL/6J mice [6]; Table 8, 11 Gy, 1 dose daily, continuous every day, Day 5
  Number of mice surviving: 3
C57BL/6J mice [6]; Table 8, 11 Gy, 1 dose daily, continuous every day, Day 6
  Number of mice surviving: 3
C57BL/6J mice [6]; Table 8, 11 Gy, 1 dose daily, continuous every day, Day 7
  Number of mice surviving: 3
C57BL/6J mice [6]; Table 8, 11 Gy, 1 dose daily, continuous every day, Day 8
  Number of mice surviving: 3
C57BL/6J mice [6]; Table 8, 11 Gy, 1 dose daily, continuous every day, Day 9
  Number of mice surviving: 2
C57BL/6J mice [6]; Table 8, 11 Gy, 1 dose daily, continuous every day, Day 10
  Number of mice surviving: 0
C57BL/6J mice [6]; Table 8, 11 Gy, 7 days, 2 dose daily, Day 5
  Number of mice surviving: 3
C57BL/6J mice [6]; Table 8, 11 Gy, 7 days, 2 dose daily, Day 6
  Number of mice surviving: 3
C57BL/6J mice [6]; Table 8, 11 Gy, 7 days, 2 dose daily, Day 7
  Number of mice surviving: 3
C57BL/6J mice [6]; Table 8, 11 Gy, 7 days, 2 dose daily, Day 8
  Number of mice surviving: 3
C57BL/6J mice [6]; Table 8, 11 Gy, 7 days, 2 dose daily, Day 9
  Number of mice surviving: 2
C57BL/6J mice [6]; Table 8, 11 Gy, 7 days, 2 dose daily, Day 10
  Number of mice surviving: 0

Reference: patent US10301320B2, “Compositions and methods of modulating 15-PGDH activity” (CASE WESTERN RESERVE UNIVERSITY, priority 2012, dated 2019)
